Test results reported in US8492368B2 (priority 2011, dated 2013).

Tests used:
rats suffering from TBI = settings: 16 mg/kg, 72 hours post-injury, moderate to severe brain injury, FIG. 1, p<0.05; cited from earlier work
traumatic brain injury = settings: cited from earlier work; for factors of cell death, brain swelling and inflammation: TBI
P-glycoprotein (PGP) = experiment: P-glycoprotein protein abundance in penumbral region of injured brain, FIG. 6; format: in vivo, rodents; settings: 72 hours post-injury, vs vehicle and sham, p<0.05, FIG. 6
[1] = test system: rats that have suffered a concussion (mTBI); experiment: Morris Water Maze latency to platform in mTBI (concussion) model, FIG. 8; format: in vivo; settings: vs vehicle-injured rats, p<0.05
severe TBI patients = settings: six months; cited from earlier work
[2] = test system: male reproductive function; settings: males; cited from earlier work
glutathione reductase = settings: 72 hours post-injury, compared to all other groups, FIG. 2, p<0.01; cited from earlier work
[3] = molecular target: T1, progesterone receptor (PR) (Homo sapiens, UniProt P06401); settings: cited from earlier work
T1 sequence (P06401 1-933): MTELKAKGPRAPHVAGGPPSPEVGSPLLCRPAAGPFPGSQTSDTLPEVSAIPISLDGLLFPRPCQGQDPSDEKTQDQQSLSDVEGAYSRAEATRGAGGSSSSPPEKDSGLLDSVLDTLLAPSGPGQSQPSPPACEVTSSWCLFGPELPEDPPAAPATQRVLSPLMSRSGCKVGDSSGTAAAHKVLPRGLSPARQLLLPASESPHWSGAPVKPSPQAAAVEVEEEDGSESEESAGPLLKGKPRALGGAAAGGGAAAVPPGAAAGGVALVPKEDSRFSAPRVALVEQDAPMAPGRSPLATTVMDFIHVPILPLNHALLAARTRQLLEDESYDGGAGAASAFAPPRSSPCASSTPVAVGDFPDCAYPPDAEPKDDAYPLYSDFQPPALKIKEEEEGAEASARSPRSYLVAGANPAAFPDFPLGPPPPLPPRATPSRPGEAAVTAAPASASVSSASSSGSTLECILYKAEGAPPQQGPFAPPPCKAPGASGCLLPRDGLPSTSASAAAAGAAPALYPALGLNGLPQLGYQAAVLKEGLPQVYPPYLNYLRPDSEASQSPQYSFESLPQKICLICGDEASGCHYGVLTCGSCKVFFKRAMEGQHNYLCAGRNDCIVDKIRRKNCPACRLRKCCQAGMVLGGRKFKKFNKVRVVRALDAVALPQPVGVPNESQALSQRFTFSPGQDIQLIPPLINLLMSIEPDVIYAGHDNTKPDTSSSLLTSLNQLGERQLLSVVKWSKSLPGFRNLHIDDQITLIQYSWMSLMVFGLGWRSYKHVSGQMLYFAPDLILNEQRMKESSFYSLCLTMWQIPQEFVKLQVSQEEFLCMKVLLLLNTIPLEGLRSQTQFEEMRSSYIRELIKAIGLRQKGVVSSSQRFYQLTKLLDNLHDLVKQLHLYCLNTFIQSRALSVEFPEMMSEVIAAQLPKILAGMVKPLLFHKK

SMILES	brain water content (measure of edema) (rats suffering from TBI)	factors of cell death (caspase-3) and gliosis (GFAP) (traumatic brain injury; following injury)	protein abundance of P-glycoprotein (PGP) (P-glycoprotein (PGP))	latency to platform, post-acute administration ([1]; 15 minutes post mTBI (1 hour post))	latency to platform, prophylactic administration ([1]; 15 minutes prior to mTBI (1 hour prior))	neurological outcomes long-term (severe TBI patients)	conversion of testosterone to dihydrotestosterone [2]	size of reproductive organs [2]	spermatogenesis [2]	factors of cell death, brain swelling and inflammation (traumatic brain injury)	edema (traumatic brain injury; both rodent sexes following injury)	genes promoting the inflammatory cascade: Bcl-2, IL-1β and Cxcl-10 (traumatic brain injury; following TBI, previous study)	inflammatory factors (TNF-α and IL-1β) (traumatic brain injury; following injury)	Neurological Severity Score (motor and cognitive functioning) (traumatic brain injury; rats following injury)	anti-oxidant activity of glutathione reductase (glutathione reductase)	activation of PR-mediated transcription [3]
CC(=O)[C@H]1CC[C@H]2[C@@H]3CC[C@H]4C[C@H](O)CC[C@]4(C)[C@H]3CC[C@]12C [ALLO, allopregnanolone]	normalizes brain water content	decreased														
CC(=O)[C@H]1CC[C@H]2[C@@H]3CCC4=CC(=O)CC[C@]4(C)[C@H]3CC[C@]12C [Prog, progesterone]	normalizes brain water content	decreased	increase	decreases latency to platform	decreases latency to platform	better neurological outcomes	inhibits	reduces	suppresses	equivalently reduce	effectively attenuates	down-regulated	inhibiting	significant improvements		
CC(=O)[C@@H]1CC[C@@H]2[C@H]3CCC4=CC(=O)CC[C@@]4(C)[C@@H]3CC[C@]21C [ent-Prog, ent-progesterone]	normalizes brain water content		increase							equivalently reduce					significantly increases	does not activate
